IC50 and Activity data for 62 compounds are collected here from ChEMBL document CHEMBL6083277, “Discovery of SZJK-0421: A Novel Potent, Low Toxicity, Selective Second Generation of CRM1 Inhibitor for the Treatment of Both Hematological and Solid Tumors” (J Med Chem, 2024).

For this experiment, the system named is MM1.S. In words: Antiproliferative activity against human MM1.S cells assessed as inhibition of cell growth incubated for 72 hrs by celltiter-glo assay. The class given is functional, cell-based. On the technique in general: Cellular ATP, detected with luciferase, serves as a proxy for viable cell number.

Activity calls are given as the source filed them. No cut-off for these calls is given here.

In general, IC50 refers to the midpoint of a concentration-inhibition curve.

Turning to `CONC(=O)/C(=C/n1cnc(-c2cc(C(F)(F)F)nc(C(F)(F)F)c2)n1)c1ccc(C)nc1`, the half-inhibitory concentration (IC50) worked out at 207 nM.

As to `O=C(NC1CCCCC1)/C(=C/n1cnc(-c2cc(C(F)(F)F)cc(C(F)(F)F)c2)n1)c1cncnc1`, the IC50 worked out at 572 nM.

Consider `CONC(=O)/C(=C/n1cnc(-c2cc(C(F)(F)F)cc(C(F)(F)F)c2)n1)c1ccsc1`, for which the IC50 turned out to be 990 nM.

With `NC(=O)/C(=C/n1cnc(-c2cc(C(F)(F)F)cc(C(F)(F)F)c2)n1)c1cncc(F)c1`, the IC50 was 259 nM.

Regarding `COc1ncc(/C(=C\n2cnc(-c3cc(C(F)(F)F)cc(C(F)(F)F)c3)n2)C(N)=O)cn1`, the IC50 amounted to 646 nM.

As to `CONC(=O)/C(=C/n1cnc(-c2cc(OC(=O)CCNC(=O)CCCC[C@@H]3SC[C@@H]4NC(=O)N[C@@H]43)cc(C(F)(F)F)c2)n1)c1cncnc1`, the IC50 was determined as 1700 nM.

For the compound `NC(=O)/C(=C/n1cnc(-c2cc(C(F)(F)F)cc(C(F)(F)F)c2)n1)c1ccc(F)nc1`, the IC50 was 1470 nM.

For the compound `O=C(NC1CCCC1)/C(=C/n1cnc(-c2cc(C(F)(F)F)cc(C(F)(F)F)c2)n1)c1cncnc1`, the IC50 came to 292 nM.

Turning to `CCONC(=O)/C(=C/n1cnc(-c2cc(C(F)(F)F)cc(C(F)(F)F)c2)n1)c1cncnc1`, the IC50 came to 111 nM.

Regarding `N#Cc1ccc(/C(=C\c2cnn(-c3cc(C(F)(F)F)cc(C(F)(F)F)c3)c2)C(N)=O)cn1`, the IC50 worked out at 1410 nM.

In the case of `Cc1ccc(/C(=C\n2cnc(-c3cc(C(F)(F)F)nc(C(F)(F)F)c3)n2)C(N)=O)cn1`, the IC50 came out at 245 nM.

Turning to `NC(=O)/C(=C/c1cnn(-c2cc(C(F)(F)F)cc(C(F)(F)F)c2)c1)c1cncnc1`, the IC50 was determined as 1750 nM.

As to `NC(=O)/C(=C/n1cnc(-c2cc(C(F)(F)F)nc(C(F)(F)F)c2)n1)c1cncnc1`, the IC50 was 226 nM.

Regarding `NC(=O)/C=C(\c1ccncc1)c1cnn(-c2cc(C(F)(F)F)cc(C(F)(F)F)c2)c1`, the outcome was inactive.

Turning to `N#Cc1ccc(/C(=C\C(N)=O)c2cnn(-c3cc(C(F)(F)F)cc(C(F)(F)F)c3)c2)cn1`, the outcome was inactive.

Consider `NC(=O)/C=C(\c1ccc(F)nc1)c1cnn(-c2cc(C(F)(F)F)cc(C(F)(F)F)c2)c1`, for which the result was inactive.

In the case of `NC(=O)/C(=C/n1ccc(-c2cc(C(F)(F)F)cc(C(F)(F)F)c2)n1)c1ccc(C(F)(F)F)nc1`, the IC50 was 1920 nM.

As for `CN(C)c1ncc(/C(=C\C(N)=O)c2cnn(-c3cc(C(F)(F)F)cc(C(F)(F)F)c3)c2)cn1`, the outcome was inactive.

Regarding `COc1ncc(/C(=C\c2cnn(-c3cc(C(F)(F)F)cc(C(F)(F)F)c3)c2)C(N)=O)cn1`, the IC50 stood at 2260 nM.

For `NC(=O)/C(=C/c1cnn(-c2cc(C(F)(F)F)cc(C(F)(F)F)c2)c1)c1ccc(F)nc1`, the result was inactive.

Turning to `NC(=O)/C(=C/n1cnc(-c2cc(C(F)(F)F)cc(C(F)(F)F)c2)n1)c1ccccc1`, the IC50 was found to be 346 nM.

As to `Cc1ccc(/C(=C\C(N)=O)c2cnn(-c3cc(C(F)(F)F)cc(C(F)(F)F)c3)c2)cn1`, the outcome was inactive.

Consider `CON(C)C(=O)/C(=C/n1cnc(-c2cc(C(F)(F)F)cc(C(F)(F)F)c2)n1)c1cncnc1`, for which the IC50 was determined as 75.7 nM.

Turning to `CNC(=O)/C(=C/n1cnc(-c2cc(C(F)(F)F)cc(C(F)(F)F)c2)n1)c1cncnc1`, the IC50 turned out to be 189 nM.

Regarding `CONC(=O)/C(=C/n1cnc(-c2cc(C(F)(F)F)cc(C(F)(F)F)c2)n1)c1ccc(C#N)nc1`, the IC50 came out at 185 nM.

For the compound `O=C(NC1CCCCCC1)/C(=C/n1cnc(-c2cc(C(F)(F)F)cc(C(F)(F)F)c2)n1)c1cncnc1`, the IC50 turned out to be 321 nM.

As to `O=C(NC1CCOCC1)/C(=C/n1cnc(-c2cc(C(F)(F)F)cc(C(F)(F)F)c2)n1)c1cncnc1`, the IC50 was 142 nM.

For the compound `NC(=O)/C(=C/n1ccc(-c2cc(C(F)(F)F)cc(C(F)(F)F)c2)n1)c1cncnc1`, the IC50 came out at 1210 nM.

Regarding `CN(C)c1ncc(/C(=C\c2cnn(-c3cc(C(F)(F)F)cc(C(F)(F)F)c3)c2)C(N)=O)cn1`, the result was inactive.

In the case of `O=C(NCc1cccnc1)/C(=C/n1cnc(-c2cc(C(F)(F)F)cc(C(F)(F)F)c2)n1)c1cncnc1`, the IC50 was found to be 1400 nM.

Regarding `NC(=O)/C(=C/n1cnc(-c2cc(C(F)(F)F)cc(C(F)(F)F)c2)n1)c1cccc2cccnc12`, the IC50 stood at 447 nM.

As for `CONC(=O)/C(=C/n1cnc(-c2cc(C(F)(F)F)cc(C(F)(F)F)c2)n1)c1ccn(C)n1`, the IC50 came out at 1200 nM.

`CONC(=O)/C(=C/n1cnc(-c2cc(C(F)(F)F)cc(C(F)(F)F)c2)n1)c1cnc(Cl)nc1`: the IC50 is 485 nM.

As to `NC(=O)/C(=C/n1cnc(-c2cc(C(F)(F)F)cc(C(F)(F)F)c2)n1)c1ccc(C(F)(F)F)nc1`, the half-inhibitory concentration (IC50) came out at 1660 nM.

Take `CONC(=O)/C(=C/n1cnc(-c2cc(C(F)(F)F)cc(C(F)(F)F)c2)n1)c1cnc(OC)nc1`: the IC50 was determined as 244 nM.

In the case of `NC(=O)/C=C(\c1cncc(F)c1)c1cnn(-c2cc(C(F)(F)F)cc(C(F)(F)F)c2)c1`, the outcome was inactive.

Regarding `COC(=O)CNC(=O)/C(=C/n1cnc(-c2cc(C(F)(F)F)cc(C(F)(F)F)c2)n1)c1cncnc1`, the IC50 came to 99.3 nM.

Regarding `O=C(NC12CC3CCC1CC(C3)C2)/C(=C/n1cnc(-c2cc(C(F)(F)F)cc(C(F)(F)F)c2)n1)c1cncnc1` (configuration not stated), the IC50 came out at 323 nM.

Consider `O=C(NNc1cnccn1)/C(=C/n1cnc(-c2cc(C(F)(F)F)cc(C(F)(F)F)c2)n1)c1cncnc1`, for which the IC50 was found to be 328 nM.

As for `NC(=O)/C(=C/n1ccc(-c2cc(C(F)(F)F)cc(C(F)(F)F)c2)n1)c1ccncc1`, the 50% inhibitory concentration (IC50) amounted to 1430 nM.

As to `CONC(=O)/C(=C/n1cnc(-c2cc(C(F)(F)F)cc(C(F)(F)F)c2)n1)c1ccncc1`, the IC50 turned out to be 202 nM.

With `COc1ncc(/C(=C\C(N)=O)c2cnn(-c3cc(C(F)(F)F)cc(C(F)(F)F)c3)c2)cn1`, the outcome was inactive.

As for `O=C(NC1CC1)/C(=C/n1cnc(-c2cc(C(F)(F)F)cc(C(F)(F)F)c2)n1)c1cncnc1`, the IC50 stood at 178 nM.

For the compound `Cc1ccc(/C(=C\n2cnc(-c3cc(C(F)(F)F)cc(C(F)(F)F)c3)n2)C(N)=O)cn1`, the result was inactive.

Consider `CONC(=O)/C(=C/n1cnc(-c2cc(C(F)(F)F)nc(C(F)(F)F)c2)n1)c1cncnc1`, for which the IC50 was determined as 198 nM.

On to `NC(=O)/C(=C/n1cnc(-c2cc(C(F)(F)F)cc(C(F)(F)F)c2)n1)c1ccncc1`, for which the IC50 is 128 nM.

In the case of `NC(=O)/C(=C/c1cnn(-c2cc(C(F)(F)F)cc(C(F)(F)F)c2)c1)c1cncc(F)c1`, the IC50 is 2360 nM.

With `CONC(=O)/C(=C/n1cnc(-c2cc(C(F)(F)F)cc(C(F)(F)F)c2)n1)c1ccc(C#N)cc1`, the half-inhibitory concentration (IC50) turned out to be 1040 nM.

With `CONC(=O)/C(=C/n1cnc(-c2cc(C(F)(F)F)cc(C(F)(F)F)c2)n1)c1ccc(OC)nc1`, the IC50 turned out to be 166 nM.

As to `N#Cc1ccc(/C(=C\n2ccc(-c3cc(C(F)(F)F)cc(C(F)(F)F)c3)n2)C(N)=O)cn1`, the IC50 worked out at 880 nM.

For `CN(C)c1ncc(/C(=C\n2cnc(-c3cc(C(F)(F)F)cc(C(F)(F)F)c3)n2)C(N)=O)cn1`, the IC50 worked out at 1310 nM.

For the compound `CC(C)(C)NNC(=O)/C(=C/n1cnc(-c2cc(C(F)(F)F)cc(C(F)(F)F)c2)n1)c1cncnc1`, the IC50 is 332 nM.

Turning to `NC(=O)/C=C(\c1ccc(C(F)(F)F)nc1)c1cnn(-c2cc(C(F)(F)F)cc(C(F)(F)F)c2)c1`, the result was inactive.

Consider `NC(=O)/C(=C/n1cnc(-c2cc(C(F)(F)F)cc(C(F)(F)F)c2)n1)c1c[nH]c2ccccc12`, for which the IC50 is 313 nM.

For `Cc1cn(/C=C(/C(N)=O)c2cncnc2)nc1-c1cc(C(F)(F)F)cc(C(F)(F)F)c1`, the result was inactive.

For the compound `NC(=O)/C(=C/c1cnn(-c2cc(C(F)(F)F)cc(C(F)(F)F)c2)c1)c1ccc(C(F)(F)F)nc1`, the IC50 amounted to 1340 nM.

As to `N#Cc1cn(/C=C(/C(N)=O)c2cncnc2)nc1-c1cc(C(F)(F)F)cc(C(F)(F)F)c1`, the IC50 was 1220 nM.

As to `NC(=O)/C=C(\c1cncnc1)c1cnn(-c2cc(C(F)(F)F)cc(C(F)(F)F)c2)c1`, the result was inactive.

With `NC(=O)/C(=C/c1cnn(-c2cc(C(F)(F)F)cc(C(F)(F)F)c2)c1)c1ccncc1`, the result was inactive.

Regarding `N#Cc1ccc(/C(=C\n2cnc(-c3cc(C(F)(F)F)cc(C(F)(F)F)c3)n2)C(N)=O)cn1`, the IC50 was found to be 176 nM.

As for `O=C(NCc1ccccn1)/C(=C/n1cnc(-c2cc(C(F)(F)F)cc(C(F)(F)F)c2)n1)c1cncnc1`, the IC50 was found to be 1500 nM.

For the compound `Cc1ccc(/C(=C\c2cnn(-c3cc(C(F)(F)F)cc(C(F)(F)F)c3)c2)C(N)=O)cn1`, the result was inactive.
